Measured values as given in US20260022142A1, “MACROCYCLIC IMMUNOMODULATORS” (Bristol-Myers Squibb Company, priority 2022, published 2026).
Bridge positions count the residues as written; N and C are the ends. Square brackets hold non-standard residues; d marks the D form. Peptide text beside a SMILES is read from it. * marks the point of attachment. ξ: configuration not given here. Phe(3-CF3) = N[C@@H](Cc1cccc(C(F)(F)F)c1)C(=O)O; Phe(4-COOH) = N[C@@H](Cc1ccc(C(=O)O)cc1)C(=O)O; Bip = N[C@@H](Cc1ccc(-c2ccccc2)cc1)C(=O)O; NH(CH2)14COOH = O=C(O)CCCCCCCCCCCCCCN*; Phe(3-Me) = Cc1cccc(C[C@H](N)C(=O)O)c1; Val(3-OH) = CC(C)(O)[C@H](N)C(=O)O; hArg = N=C(N)NCCCC[C@H](N)C(=O)O; 4Pal = N[C@@H](Cc1ccncc1)C(=O)O; Cha = N[C@@H](CC1CCCCC1)C(=O)O; Cit = NC(=O)NCCC[C@H](N)C(=O)O; Thr(3ξ) = CC(O)[C@H](N)C(=O)O; PEG4 = NCCOCCOCCOCCOCCC(=O)O; dDab = NCC[C@@H](N)C(=O)O; Carboxymethyl = O=C(O)C*; Orn = NCCC[C@H](N)C(=O)O; Pra = C#CC[C@H](N)C(=O)O; Aun = NCCCCCCCCCCC(=O)O; Dab = NCC[C@H](N)C(=O)O; Nva = CCC[C@H](N)C(=O)O; Dap = NC[C@H](N)C(=O)O; AEEA = NCCOCCOCC(=O)O

Each compound was assayed against T1, PD-1/PD-L1 interaction (PE-labeled human PD-L1-Ig binding to Jurkat cell line over-expressing human PD-1) (Homo sapiens, UniProt Q15116) (assay: Jurkat-PD-1 Cell Binding High-Content Screening Assay (CBA)). Settings: Jurkat cell line over-expressing human PD-1; PE-labeled PD-L1-Ig 20 nM final; read-out: Jurkat hPD1-PDL1 IC50.
T1 construct: expressed in transfected cells; host or cells: Jurkat
Format: cell-based
In short: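 Jurkat cells stably over-expressing human PD-1 were seeded in DMEM with 10% fetal calf serum and pre-incubated with compound for 2 h at 37° C. PE-labeled human PD-L1-Ig was then added at 20 nM final for 1 hour, after which cells were fixed with paraformaldehyde, Hoechst-stained and imaged by high-content microscopy.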

T1 sequence (Q15116 25-288): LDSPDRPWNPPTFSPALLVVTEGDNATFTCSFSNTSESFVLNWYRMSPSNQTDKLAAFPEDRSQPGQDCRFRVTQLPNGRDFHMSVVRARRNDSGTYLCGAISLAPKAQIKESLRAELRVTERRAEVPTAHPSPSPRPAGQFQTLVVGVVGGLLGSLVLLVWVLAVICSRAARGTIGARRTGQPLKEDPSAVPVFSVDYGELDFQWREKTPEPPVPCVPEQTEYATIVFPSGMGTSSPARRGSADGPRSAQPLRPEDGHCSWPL

SMILES | IC50
CC(C)C[C@H]1NC(=O)[C@H](CCCN)NC(=O)[C@H](Cc2ccc(O)cc2)NC(=O)[C@H](Cc2ccc(-c3ccccc3)cc2)NC(=O)[C@H](Cc2ccc(O)cc2)NC(=O)[C@H](Cc2c[nH]c3ccccc23)NC(=O)[C@H](CC(=O)O)NC(=O)[C@H](Cc2ccc(OCC(=O)O)cc2)NC(=O)[C@H](Cc2ccc(OCC(=O)O)cc2)NC(=O)CSC[C@@H](C(=O)NCCOCCOCC(=O)NCCCCCCCCCCC(=O)O)NC(=O)[C@H](CCCN)NC(=O)[C@H](Cc2ccc(O)cc2)NC(=O)[C@H](CC2CCCCC2)NC(=O)[C@H](CCN)NC1=O [Compound 2521] ({CH2CO}-Y(Carboxymethyl)Y(Carboxymethyl)DWY[Bip]Y[Orn][dL][Dab][Cha]Y[Orn]C[AEEA][Aun]-OH; thioether N-14) | 89.1 nM
Cc1cccc(C[C@@H]2NC(=O)[C@H](CC(=O)O)NC(=O)[C@H](Cc3ccc(OCC(=O)O)cc3)NC(=O)[C@H](CCCNC(=N)N)NC(=O)CSC[C@@H](C(=O)N[C@@H](CCN)C(=O)NCCCCCCCCCCC(=O)O)NC(=O)[C@H]([C@@H](C)O)NC(=O)[C@H](C(C)C)NC(=O)[C@H](CC3CCCCC3)NC(=O)[C@H](CCN)NC(=O)[C@@H](CC(C)C)NC(=O)[C@H](CCCN)NC(=O)[C@H](CCC(N)=O)NC(=O)[C@H](Cc3ccc(-c4ccccc4)cc3)NC(=O)[C@H](Cc3ccc(OCC(=O)O)cc3)NC2=O)c1 [Compound 2854] ({CH2CO}-RY(Carboxymethyl)D[Phe(3-Me)]Y(Carboxymethyl)[Bip]Q[Orn][dL][Dab][Cha]VTC[Dab][Aun]-OH; thioether N-14) | 16.8 nM
Cc1cccc(C[C@@H]2NC(=O)[C@H](CC(=O)O)NC(=O)[C@H](Cc3ccc(OCC(=O)O)cc3)NC(=O)[C@H](CN)NC(=O)CSC[C@@H](C(=O)N[C@@H](CCN)C(=O)NCCOCCOCC(=O)NCCCCCCCCCCC(=O)O)NC(=O)[C@H](C(C)O)NC(=O)[C@H](C(C)C)NC(=O)[C@H](CC3CCCCC3)NC(=O)[C@H](CCN)NC(=O)[C@@H](CC(C)C)NC(=O)[C@H](CCCN)NC(=O)[C@H](Cc3ccc(O)cc3)NC(=O)[C@H](Cc3ccc(-c4ccccc4)cc3)NC(=O)[C@H](Cc3ccc(O)cc3)NC2=O)c1 (stereo partly drawn) [Compound 2575] ({CH2CO}-[Dap]Y(Carboxymethyl)D[Phe(3-Me)]Y[Bip]Y[Orn][dL][Dab][Cha]V[Thr(3ξ)]C[Dab][AEEA][Aun]-OH; thioether N-14) | 10.2 nM
Cc1cccc(C[C@@H]2NC(=O)[C@H](CC(=O)O)NC(=O)[C@H](Cc3ccc(OCC(=O)O)cc3)NC(=O)[C@H](Cc3ccncc3)NC(=O)CSC[C@@H](C(=O)N[C@H](CCN)C(=O)NCCCCCCCCCCC(=O)O)NC(=O)[C@H](Cc3cnc[nH]3)NC(=O)[C@H](C(C)(C)O)NC(=O)[C@H](CC3CCCCC3)NC(=O)[C@H](CCN)NC(=O)[C@@H](CC(C)C)NC(=O)[C@H](CCCN)NC(=O)[C@H](Cc3ccc(OCC(=O)O)cc3)NC(=O)[C@H](Cc3ccc(-c4ccccc4)cc3)NC(=O)[C@H](Cc3ccc(OCC(=O)O)cc3)NC2=O)c1 [Compound 3738] ({CH2CO}-[4Pal]Y(Carboxymethyl)D[Phe(3-Me)]Y(Carboxymethyl)[Bip]Y(Carboxymethyl)[Orn][dL][Dab][Cha][Val(3-OH)]HC[dDab][Aun]-OH; thioether N-14) | 20.7 nM
Cc1cccc(C[C@@H]2NC(=O)[C@H](CC(=O)O)NC(=O)[C@H](Cc3ccncc3)NC(=O)[C@H](Cc3ccc(OCC(=O)O)cc3)NC(=O)CSC[C@@H](C(=O)N[C@@H](CCN)C(=O)NCCCCCCCCCCC(=O)O)NC(=O)[C@H]([C@@H](C)O)NC(=O)[C@H](C(C)C)NC(=O)[C@H](CC3CCCCC3)NC(=O)[C@H](CCN)NC(=O)[C@@H](CC(C)C)NC(=O)[C@H](CCCN)NC(=O)[C@H](Cc3ccc(O)cc3)NC(=O)[C@H](Cc3ccc(-c4ccccc4)cc3)NC(=O)[C@H](Cc3ccc(O)cc3)NC2=O)c1 [Compound 2734] ({CH2CO}-Y(Carboxymethyl)[4Pal]D[Phe(3-Me)]Y[Bip]Y[Orn][dL][Dab][Cha]VTC[Dab][Aun]-OH; thioether N-14) | 27.2 nM
Cc1cccc(C[C@@H]2NC(=O)[C@H](CC(=O)O)NC(=O)[C@H](Cc3ccc(OCC(=O)O)cc3)NC(=O)[C@H](CN)NC(=O)CSC[C@@H](C(=O)N[C@@H](C)C(=O)N[C@@H](CCC(=O)O)C(=O)NCC(=O)NCCCCCCCCCCC(=O)O)NC(=O)[C@H]([C@@H](C)O)NC(=O)[C@H](C(C)C)NC(=O)[C@H](CC3CCCCC3)NC(=O)[C@H](CCN)NC(=O)[C@@H](CC(C)C)NC(=O)[C@H](CCCN)NC(=O)[C@H](CCCNC(N)=O)NC(=O)[C@H](Cc3ccc(-c4ccccc4)cc3)NC(=O)[C@H](C(C)C)NC2=O)c1 [Compound 1000] ({CH2CO}-[Dap]Y(Carboxymethyl)D[Phe(3-Me)]V[Bip][Cit][Orn][dL][Dab][Cha]VTCAEG[Aun]-OH; thioether N-14) | 5.5 nM
CCC[C@@H]1NC(=O)CSC[C@@H](C(=O)N[C@@H](CCN)C(=O)NCCOCCOCCOCCOCCC(=O)NCCCCCCCCCCCCCCC(=O)O)NC(=O)[C@H](CO)NC(=O)[C@H](C(C)(C)O)NC(=O)[C@H](CC2CCCCC2)NC(=O)[C@H](CCN)NC(=O)[C@@H](CC(C)C)NC(=O)[C@H](CCCN)NC(=O)[C@H](Cc2ccc(C(=O)O)cc2)NC(=O)[C@H](Cc2ccc(-c3ccccc3)cc2)NC(=O)[C@H](Cc2ccc(C(=O)O)cc2)NC(=O)[C@H](Cc2cccc(C(F)(F)F)c2)NC(=O)[C@H](CC(=O)O)NC(=O)[C@H](Cc2ccc(OCC(=O)O)cc2)NC1=O [Compound 2906] ({CH2CO}-[Nva]Y(Carboxymethyl)D[Phe(3-CF3)][Phe(4-COOH)][Bip][Phe(4-COOH)][Orn][dL][Dab][Cha][Val(3-OH)]SC[Dab][PEG4]-{NH(CH2)14COOH}; thioether N-14) | 97.7 nM
Cc1cccc(C[C@@H]2NC(=O)[C@H](CC(=O)O)NC(=O)[C@H](Cc3ccc(OCC(=O)O)cc3)NC(=O)[C@H](CN)NC(=O)CSC[C@@H](C(=O)N[C@@H](CCN)C(=O)NCCCCCCCCCCC(=O)O)NC(=O)[C@H](CCCN)NC(=O)[C@H](C(C)C)NC(=O)[C@H](CC3CCCCC3)NC(=O)[C@H](CCN)NC(=O)[C@@H](CC(C)C)NC(=O)[C@H](CCCN)NC(=O)[C@H](CCCNC(N)=O)NC(=O)[C@H](Cc3ccc(-c4ccccc4)cc3)NC(=O)[C@H](Cc3ccc(OCC(=O)O)cc3)NC2=O)c1 [Compound 2844] ({CH2CO}-[Dap]Y(Carboxymethyl)D[Phe(3-Me)]Y(Carboxymethyl)[Bip][Cit][Orn][dL][Dab][Cha]V[Orn]C[Dab][Aun]-OH; thioether N-14) | 25.5 nM

More lines, now with the values ahead:

IC50 | SMILES
32.8 nM | C#CC[C@H](NC(=O)COCCOCCNC(=O)[C@@H]1CSCC(=O)N[C@@H](Cc2ccncc2)C(=O)N[C@@H](Cc2ccc(OCC(=O)O)cc2)C(=O)N[C@@H](CC(=O)O)C(=O)N[C@@H](Cc2c[nH]c3ccccc23)C(=O)N[C@@H](C(C)C)C(=O)N[C@@H](Cc2ccc(-c3ccccc3)cc2)C(=O)N[C@@H]([C@@H](C)CC)C(=O)N[C@@H](CCCN)C(=O)N[C@H](CC(C)C)C(=O)N[C@@H](CCN)C(=O)N[C@@H](CC(C)C)C(=O)N[C@@H](C(C)C)C(=O)N[C@@H]([C@@H](C)O)C(=O)N1)C(=O)N[C@@H](CCCN)C(=O)NCCCCCCCCCCC(=O)O [Compound 1213] ({CH2CO}-[4Pal]Y(Carboxymethyl)DWV[Bip]I[Orn][dL][Dab]LVTC[AEEA][Pra][Orn][Aun]-OH; thioether N-14)
25.3 nM | CC(C)C[C@H]1NC(=O)[C@H](CCCN)NC(=O)[C@H](C(C)C)NC(=O)[C@H](Cc2ccc(-c3ccccc3)cc2)NC(=O)[C@H](C(C)C)NC(=O)[C@H](Cc2c[nH]c3ccccc23)NC(=O)[C@H](CC(=O)O)NC(=O)[C@H](Cc2ccc(OCC(=O)O)cc2)NC(=O)[C@H](CCCCNC(=N)N)NC(=O)CSC[C@@H](C(=O)N[C@@H](CCN)C(=O)NCCOCCOCC(=O)NCCCCCCCCCCC(=O)O)NC(=O)[C@H](CCN)NC(=O)[C@H](C(C)C)NC(=O)[C@H](CC2CCCCC2)NC(=O)[C@H](CC(N)=O)NC1=O [Compound 3215] ({CH2CO}-[hArg]Y(Carboxymethyl)DWV[Bip]V[Orn][dL]N[Cha]V[Dab]C[Dab][AEEA][Aun]-OH; thioether N-14)
53.4 nM | CC(C)C[C@H]1NC(=O)[C@H](CCCCN)NC(=O)[C@H](C(C)C)NC(=O)[C@H](Cc2ccc(-c3ccccc3)cc2)NC(=O)[C@H](C(C)C)NC(=O)[C@H](Cc2c[nH]c3ccccc23)NC(=O)[C@H](CC(=O)O)NC(=O)[C@H](Cc2ccc(OCC(=O)O)cc2)NC(=O)[C@H](CCCCNC(=N)N)NC(=O)CSC[C@@H](C(=O)NCCOCCOCC(=O)N[C@@H](CCCCN)C(=O)NCCCCCCCCCCC(=O)O)NC(=O)[C@H](CO)NC(=O)[C@H](C(C)C)NC(=O)[C@H](CC2CCCCC2)NC(=O)[C@H](CC(N)=O)NC1=O [Compound 3129] ({CH2CO}-[hArg]Y(Carboxymethyl)DWV[Bip]VK[dL]N[Cha]VSC[AEEA]K[Aun]-OH; thioether N-14)
26.5 nM | CC(C)C[C@H]1NC(=O)[C@H](CCCN)NC(=O)[C@H](C(C)C)NC(=O)[C@H](Cc2ccc(-c3ccccc3)cc2)NC(=O)[C@H](C(C)C)NC(=O)[C@H](Cc2c[nH]c3ccccc23)NC(=O)[C@H](CC(=O)O)NC(=O)[C@H](Cc2ccc(OCC(=O)O)cc2)NC(=O)[C@H](CCCCNC(=N)N)NC(=O)CSC[C@@H](C(=O)N[C@@H](C)C(=O)NCCOCCOCC(=O)N[C@@H](CCCN)C(=O)NCCCCCCCCCCC(=O)O)NC(=O)[C@H](C(C)O)NC(=O)[C@H](C(C)C)NC(=O)[C@H](CC2CCCCC2)NC(=O)[C@H](Cc2c[nH]cn2)NC1=O (stereo partly drawn) [Compound 3032] ({CH2CO}-[hArg]Y(Carboxymethyl)DWV[Bip]V[Orn][dL]H[Cha]V[Thr(3ξ)]CA[AEEA][Orn][Aun]-OH; thioether N-14)
14.2 nM | Cc1cccc(C[C@@H]2NC(=O)[C@H](CC(=O)O)NC(=O)[C@H](Cc3ccc(OCC(=O)O)cc3)NC(=O)[C@H](CCCNC(=N)N)NC(=O)CSC[C@@H](C(=O)NCCOCCOCC(=O)NCCCCCCCCCCC(=O)O)NC(=O)[C@H](C(C)O)NC(=O)[C@H](C(C)C)NC(=O)[C@H](CC3CCCCC3)NC(=O)[C@H](CCN)NC(=O)[C@@H](CC(C)C)NC(=O)[C@H](CCCN)NC(=O)[C@H](CCCNC(N)=O)NC(=O)[C@H](Cc3ccc(-c4ccccc4)cc3)NC(=O)[C@H](C(C)C)NC2=O)c1 (stereo partly drawn) [Compound 3459] ({CH2CO}-RY(Carboxymethyl)D[Phe(3-Me)]V[Bip][Cit][Orn][dL][Dab][Cha]V[Thr(3ξ)]C[AEEA][Aun]-OH; thioether N-14)
